In patent US20240226225A1 (Protagonist Therapeutics, Inc., priority 2021, published 2024):
Starred links: 1 amine or outer side, 2 acyl side, 3 side chain; linkers in the order of their positions; H or OH if unused. Positions of bridges follow the written chain, without caps; N, C: chain ends. Non-standard residues stand in square brackets, D forms with d. Residues, ends and D or L forms follow the SMILES beside them. Groups on a side chain read outwards from the residue. *: point of attachment. CH3O(CH2CH2O)11CH2CH2CO = COCCOCCOCCOCCOCCOCCOCCOCCOCCOCCOCCOCCC(=O)*; PEG12 = NCCOCCOCCOCCOCCOCCOCCOCCOCCOCCOCCOCCOCCC(=O)O; Ala(1H-tetrazol-5-yl) = N[C@@H](Cc1nnn[nH]1)C(=O)O; C18 diacid = O=C(O)CCCCCCCCCCCCCCCCC(=O)*; Dip = N[C@H](C(=O)O)C(c1ccccc1)c1ccccc1; γGlu = O=C(O)[C@H](CCC(=O)[*:2])N[*:1]; Palmitoyl = CCCCCCCCCCCCCCCC(=O)*; β3hF = N[C@H](CC(=O)O)Cc1ccccc1; Isovaleryl = CC(C)CC(=O)*; AEEA = NCCOCCOCC(=O)O; Ahx = NCCCCCC(=O)O

How the values were obtained:
[1] = biological target: T1, ferroportin (Homo sapiens, UniProt Q9NP59); experiment: T47D cell-based ferroportin internalization assay in presence of 0.5% mouse serum albumin (MSA), AF647-conjugated detection peptide, flow cytometry; set-up: a human breast carcinoma adherent cell line which endogenously expresses ferroportin; host or cells: T47D; conditions: T47D cells, 1 hr incubation
T1 sequence (Q9NP59 1-571): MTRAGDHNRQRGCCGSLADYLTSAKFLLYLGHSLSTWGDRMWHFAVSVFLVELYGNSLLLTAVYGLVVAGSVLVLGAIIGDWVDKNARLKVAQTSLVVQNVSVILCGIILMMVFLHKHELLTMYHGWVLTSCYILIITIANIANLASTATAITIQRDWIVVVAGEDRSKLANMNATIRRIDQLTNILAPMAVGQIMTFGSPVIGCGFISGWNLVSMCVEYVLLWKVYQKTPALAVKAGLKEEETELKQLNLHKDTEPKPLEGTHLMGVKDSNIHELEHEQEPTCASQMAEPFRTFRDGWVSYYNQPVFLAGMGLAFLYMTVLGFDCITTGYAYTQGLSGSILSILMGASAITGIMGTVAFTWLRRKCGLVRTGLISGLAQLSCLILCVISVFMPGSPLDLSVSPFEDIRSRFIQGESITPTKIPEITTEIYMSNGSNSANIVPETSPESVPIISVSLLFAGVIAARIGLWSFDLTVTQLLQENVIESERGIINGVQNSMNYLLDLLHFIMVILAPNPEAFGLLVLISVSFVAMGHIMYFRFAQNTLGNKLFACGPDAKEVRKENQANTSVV
Procedure: The potency of the peptides in causing ferroportin internalization was evaluated in a T47D cell-based assay. […] In this internalization assay, the potency of the test peptides was evaluated in presence of serum albumin which is the main protein component in the blood. T47D cells were maintained in RPMI media (containing required amount of fetal bovine serum) and regularly sub-cultured. In preparation for the assay, the cells were seeded in 96-well plates at a density of 80-100 k cells per well in 100 ul volume and allowed to rest overnight. On the next day, test peptides were first prepared in dilution series (10-point series, starting concentration of ˜5 μM, typically 3-4×fold dilution steps), all with 0.5% mouse serum albumin (MSA purified from mouse serum; Sigma, A3139). The test peptide dilution series were allowed to incubate at room temperature for 30 min. Then the media was aspirated from the 96-well cell plate and test peptide dilution series were added. After 1 hr incubation, the media with test peptides was aspirated out and AF647-conjugated detection peptide was added at fixed concentration of 200 nM. The AF647-conjugated detection peptide was previously verified to bind to ferroportin and cause its internalization. The cells were washed again after a 2 hr incubation in preparation for flow cytometry analysis. The Median Fluorescence Intensity (MFI) of the AF647-positive population was measured (after removing dead cells and non-singlets from the analysis). The MFI values were used to generate a dose-response curve and obtain IC50 potencies for the test peptides. The IC50 potencies were calculated by using 4-parameter non-linear fitting function in Graphpad Prism (Table 2A).

[2] = biological target: T1, ferroportin; experiment: FPN activity assay: internalization/degradation of ferroportin-GFP in stably transfected HEK293 cells, decrease in GFP fluorescence; assay type: cell-based; set-up: expressed in transfected cells; conditions: HEK293 cells stably expressing ferroportin-GFP, at least 18 hours incubation; read-out: FPN EC50

IC50 [1] [µM]	DC50 [2] [µM]	Compound
0.01 to 0.1	0.01 to 0.1	CC[C@H](C)[C@@H]1NC(=O)[C@@H](NC(=O)[C@@H]2CCCN2C(=O)[C@@H](NC(=O)[C@H](Cc2c[nH]cn2)NC(=O)[C@@H](NC(=O)[C@H](Cc2nn[nH]n2)NC(=O)C(C)(C)Br)[C@@H](C)O)C(c2ccccc2)c2ccccc2)CSSC[C@@H](C(N)=O)NC(=O)[C@@H](CCCCN)NC(=O)C[C@H](Cc2ccccc2)NC(=O)[C@H](CCCCNC(=O)COCCOCCNC(=O)COCCOCCNC(=O)CC[C@H](NC(=O)CCCCCCCCCCCCCCCCC(=O)O)C(=O)O)NC1=O [Compd 46, Propanoic_Acid_2Me2Br-[Tet1]-T-H-[Dpa]-P-[Cys]-I-[Lys(1PEG2_1PEG2_IsoGlu_C18_Diacid)]-[bhPhe]-[(D)Lys]-[Cys]-NH2]
0.01 to 0.1	0.01 to 0.1	CCCC(=O)N[C@@H](Cc1nn[nH]n1)C(=O)N[C@H](C(=O)N[C@@H](Cc1c[nH]cn1)C(=O)N[C@H](C(=O)N1CCC[C@H]1C(=O)N[C@H]1CSSC[C@@H](C(N)=O)NC(=O)[C@@H](CCCCN)NC(=O)C[C@H](Cc2ccccc2)NC(=O)[C@H](CCCCNC(=O)COCCOCCNC(=O)COCCOCCNC(=O)CC[C@H](NC(=O)CCCCCCCCCCCCCCCCC(=O)O)C(=O)O)NC(=O)[C@H]([C@@H](C)CC)NC1=O)C(c1ccccc1)c1ccccc1)[C@@H](C)O [Compd 49, Butyric_Acid-[Tet1]-T-H-[Dpa]-P-[Cys]-I-[Lys(1PEG2_1PEG2_IsoGlu_C18_Diacid)]-[bhPhe]-[(D)Lys]-[Cys]-NH2]
0.1 to 0.5	0.01 to 0.1	CC[C@H](C)[C@@H]1NC(=O)[C@@H](NC(=O)[C@@H]2CCCN2C(=O)[C@@H](NC(=O)[C@H](Cc2c[nH]cn2)NC(=O)[C@@H](NC(=O)[C@H](Cc2nn[nH]n2)NC(=O)CC(C)C)[C@@H](C)O)C(c2ccccc2)c2ccccc2)CSSC[C@H](C(N)=O)NC(=O)C[C@H](Cc2ccccc2)NC(=O)[C@H](CCCCNC(=O)COCCOCCNC(=O)COCCOCCNC(=O)CC[C@H](NC(=O)CCCCCCCCCCCCCCCCC(=O)O)C(=O)O)NC1=O [Compd 36, Isovaleric Acid-[Tet1]-T-H-[Dpa]-P-[Cys]-I-[Lys(1PEG2_1PEG2_IsoGlu_C18_Diacid)]-[bhPhe]-d[Cys]-NH2] (Isovaleryl-[Ala(1H-tetrazol-5-yl)]TH[Dip]PCIK([AEEA-AEEA-γGlu-C18 diacid])[β3hF][dC]-NH2; disulfide 6-10)
0.1 to 0.5	0.01 to 0.1	CC[C@H](C)[C@@H]1NC(=O)[C@@H](NC(=O)[C@@H]2CCCN2C(=O)[C@@H](NC(=O)[C@H](Cc2c[nH]cn2)NC(=O)[C@@H](NC(=O)[C@H](Cc2nn[nH]n2)NC(=O)CC(C)C(F)(F)F)[C@@H](C)O)C(c2ccccc2)c2ccccc2)CSSC[C@@H](C(N)=O)NC(=O)[C@@H](CCCCN)NC(=O)C[C@H](Cc2ccccc2)NC(=O)[C@H](CCCCNC(=O)COCCOCCNC(=O)COCCOCCNC(=O)CC[C@H](NC(=O)CCCCCCCCCCCCCCCCC(=O)O)C(=O)O)NC1=O (stereo partly drawn) [Compd 45, Butyric_Acid_3CF3-[Tet1]-T-H-[Dpa]-P-[Cys]-I-[Lys(1PEG2_1PEG2_IsoGlu_C18_Diacid)]-[bhPhe]-[(D)Lys]-[Cys]-NH2]

Second part, the compound before the results:

Compound	IC50 [1] [µM]	DC50 [2] [µM]
CCCCCCCCCCCCCCCC(=O)NCCOCCOCCOCCOCCOCCOCCOCCOCCOCCOCCOCCOCCC(=O)NCCCC[C@@H]1NC(=O)[C@H]([C@@H](C)CC)NC(=O)[C@@H](NC(=O)[C@@H]2CCCN2C(=O)[C@@H](NC(=O)[C@H](Cc2c[nH]cn2)NC(=O)[C@@H](NC(=O)[C@H](Cc2nn[nH]n2)NC(=O)CC(C)C)[C@@H](C)O)C(c2ccccc2)c2ccccc2)CSSC[C@@H](C(N)=O)NC(=O)[C@@H](CCCCN)NC(=O)C[C@H](Cc2ccccc2)NC1=O [Compd 1, Isovaleric Acid-[Tet1]-T-H-[Dpa]-P-[Cys]-I-[Lys(PEG12_Palm)]-[bhPhe]-[(D)Lys]-[Cys]-NH2] (Isovaleryl-[Ala(1H-tetrazol-5-yl)]TH[Dip]PCIK([PEG12-Palmitoyl])[β3hF][dK]C-NH2; disulfide 6-11)	0.001 to 0.01	0.01 to 0.1
CC[C@H](C)[C@@H]1NC(=O)[C@@H](NC(=O)[C@@H]2CCCN2C(=O)[C@@H](NC(=O)[C@H](Cc2cnc[nH]2)NC(=O)[C@@H](NC(=O)[C@H](CC2N=NN=N2)NC(=O)CC(C)C)[C@@H](C)O)C(c2ccccc2)c2ccccc2)CSSC[C@@H](C(N)=O)NC(=O)[C@@H](CCCCN)NC(=O)C[C@H](Cc2ccccc2)NC(=O)[C@H](CCCCNC(=O)COCCOCCNC(=O)COCCOCCNC(=O)CCCCCNC(=O)CCCCCCCCCCCCCCCCC(=O)O)NC1=O [Compd 51, Isovaleric Acid-[Tet1]-T-H-[Dpa]-P-[Cys]-I-[Lys(1PEG2_1PEG2_Ahx_C18_Diacid)]-[bhPhe]-[(D)Lys]-[Cys]-NH2]	0.01 to 0.1	0.01 to 0.1
CC[C@H](C)[C@@H]1NC(=O)[C@@H](NC(=O)[C@@H]2CCCN2C(=O)[C@@H](NC(=O)[C@H](Cc2cnc[nH]2)NC(=O)[C@@H](NC(=O)[C@H](CC2N=NN=N2)NC(=O)CC(C)C)[C@@H](C)O)C(c2ccccc2)c2ccccc2)CSSC[C@@H](C(N)=O)NC(=O)[C@@H](CCCCN)NC(=O)C[C@H](Cc2ccccc2)NC(=O)[C@H](CCCCNC(=O)COCCOCCNC(=O)COCCOCCNC(=O)[C@H](CN)NC(=O)CCCCCCCCCCCCCCCCC(=O)O)NC1=O [Compd 53, Isovaleric_Acid-[Tet1]-T-H-[Dpa]-P-[Cys]-I-[Lys(1PEG2_1PEG2_Dap_C18_Diacid)]-[bhphe]-[(D)Lys]-[Cys]-NH2]	0.01 to 0.1	0.01 to 0.1
CCCCCCCCCCCCCCCC(=O)NCCCCCC(=O)NCCCC[C@@H]1NC(=O)C[C@H](Cc2ccccc2)NC(=O)[C@@H](CCCCNC(=O)CCOCCOCCOCCOCCOCCOCCOCCOCCOCCOCCOCCOC)NC(=O)[C@H]([C@@H](C)CC)NC(=O)[C@@H](NC(=O)[C@@H]2CCCN2C(=O)[C@@H](NC(=O)[C@H](Cc2c[nH]cn2)NC(=O)[C@@H](NC(=O)[C@H](Cc2nn[nH]n2)NC(=O)CC(C)C)[C@@H](C)O)C(c2ccccc2)c2ccccc2)CSSC[C@@H](C(N)=O)NC(=O)[C@@H](CCCCNC(=O)CCOCCOCCOCCOCCOCCOCCOCCOCCOCCOCCOCCOC)NC1=O [Compd 50, Isovaleric Acid-[Tet1]-T-H-[Dpa]-P-[Cys]-I-[(DLys(PEG11_OMe-[bhPhe]-[Lys(Ahx_Palm)]-[(D)Lys(PEG11_OMe)]-[Cys]-NH2] (Isovaleryl-[Ala(1H-tetrazol-5-yl)]TH[Dip]PCI[dK](CH3O(CH2CH2O)11CH2CH2CO)[β3hF]K([Ahx-Palmitoyl])[dK](CH3O(CH2CH2O)11CH2CH2CO)C-NH2; disulfide 6-12)	0.001 to 0.01	0.01 to 0.1
CC[C@H](C)[C@@H]1NC(=O)[C@@H](NC(=O)[C@@H]2CCCN2C(=O)[C@@H](NC(=O)[C@H](Cc2cncn2C)NC(=O)[C@@H](NC(=O)[C@H](CC2N=NN=N2)NC(=O)CC(C)C)[C@@H](C)O)C(c2ccccc2)c2ccccc2)CSSC[C@@H](C(N)=O)NC(=O)[C@@H](CCCCN)NC(=O)C[C@H](Cc2ccccc2)NC(=O)[C@H](CCCCNC(=O)COCCOCCNC(=O)COCCOCCNC(=O)CC[C@H](NC(=O)CCCCCCCCCCCCCCCCC(=O)O)C(=O)O)NC1=O [Compd 8, Isovaleric Acid-[Tet1]-T-[His_3Me]-[Dpa]-P-[Cys]-I-[Lys(1PEG2_1PEG2_IsoGlu_C18_Diacid)]-[bhPhe]-[(D)Lys]-[Cys]-NH2]	0.1 to 0.5	0.01 to 0.1
